From paper PMC11413854, “Reversible Control of Native GluN2B-Containing NMDA Receptors with Visible Light” (ACS Chemical Neuroscience, 2024)
Values joined by “and” are separate entries in the source; they are usually repeats but may differ in a detail not shown here. Identical values can stand only once. Like-named read-outs stand apart in the source and are kept apart here.

Target: T1, GluN1/GluN2B receptors (UniProt P35439+Q01097)
T1 construct: expressed in transfected cells; host or cells: HEK-293 cells (ECACC, Cat #96121229)
Test: Whole-cell patch-clamp and photomodulation in HEK cells expressing GluN1/GluN2B
Type: cell-based, rat GluN1, mouse GluN2B
Settings: for inhibition of GluN1/GluN2B currents in HEK cells: 2 µM; for inhibition at 2 µM: HEK293, 2 µM, read-out: inhibition of GluN1/GluN2B currents in HEK cells
Description: Now that we have established the photodependence of OptoNAM-3 action, we tested whether this compound could be used to perform real-time modulation of NMDAR activity with light. To answer this question, we turned to mammalian cells, whose transparency allows homogeneous illumination of all membrane-expressed NMDARs. OptoNAM-3 was perfused together with agonists glutamate and glycine on HEK cells expressing GluN1/GluN2B receptors. […] OptoNAM-3 thus allows real-time and reversible inhibition of GluN1/GluN2B activity with light. By plotting the effect of different concentrations of OptoNAM-3 in the dark and during UV illumination, we observed a 20-fold UV-induced shift of OptoNAM-3 IC50 compared to the dark condition (Figure 4C). […] The stronger photodependence of OptoNAM-3 action on HEK cells might stem either from differences between cellular expression systems (Xenopus oocytes vs HEK cells) or from the different irradiation contexts (in solution for experiments in Xenopus oocytes and in a cellular context for HEK cells) (see below).
HEK293 cells were used for heterologous expression of recombinant NMDA receptors studies using whole-cell patch-clamp. Wild-type NMDARs were expressed in HEK-293 cells (obtained from ECACC, Cat #96121229). HEK cells were cultured in DMEM + glutamax medium supplemented with 10% fetal bovine calf serum and 1% penicillin/streptomycin (5000 U/mL) and cultured under standard cell culture conditions (5% CO2, 37 °C). Transfections were performed using polyethylenimine (PEI) in a cDNA/PEI ratio of 1:3 (v/v). Cells were cotransfected with a DNA mixture containing plasmids encoding wild-type GluN1, wild-type GluN2A or GluN2B, and eGFP. The total amount of DNA was 1.0 μg per 500 μL of transfected medium containing […] diameter coverslip, and the mass ratio of GluN1:GluN2B:eGFP was 1:2:1 (1:1:1 for GluN2A). 150 μM of D-APV was added to the culture medium after transfection.
Receptor functionality, OptoNAM-3 photodependence (dark then UV light) of activity, and association/dissociation kinetics (with and without UV light) were assessed in patch-clamp recordings of lifted whole cells 24–72 h post transfection (cells were not lifted for the 2 light cycles protocol, i.e., when “perfusion turned off” was written below current traces). Positively transfected cells were visualized by GFP fluorescence. The extracellular solution contained (in mM) 140 NaCl, 2.8 KCl, 1 CaCl2, 10 HEPES, 20 sucrose, and 0.01 DTPA (290–300 mOsm), pH adjusted to 7.3 using NaOH. […] Currents were sampled at 10 kHz and low-pass filtered at 2 kHz using an Axopatch 200B amplifier, a 1550B Digidata, and Clampex 10.6 (Molecular Devices). Agonists (100 μM glutamate and 100 μM glycine) were applied using a multibarrel solution exchanger (RSC 200; BioLogic). Recordings were performed at a holding potential of −60 mV and at room temperature.
Computer-controlled light pulses during electrophysiological recordings were provided from high power sensitive LEDs (CoolLED pE-4000: 4 channels each controlling 4 wavelengths from 365 to 770 nm). The LED port was directly coupled via a microscope adaptor to the fluorescence port of an inverted IX73 Olympus microscope. The output beam of the LED entry was directed toward the sample thanks to a mirror (Chroma) and applied to the center of the recording dish through a 10× objective (irradiance ∼4 mW/mm^2 for 365, 385, and 435 nm; ∼6.5 mW/mm^2 for 460 nm; ∼2 mW/mm^2 for 490 and 525 nm; ∼1.5 mW/mm^2 for 500 nm, and ∼4.5 mW/mm^2 for 550 and 580 nm) (Olympus, 0.30 N.A.). Light power was measured in the center of the recording dish plane with an optical power meter (1916-C, Newport) equipped with a calibrated UV/D detector, and irradiance was obtained upon dividing light power by the illuminated field of the microscope 10× objective (19 mm^2).
Data were collected and analyzed using pClamp 10.5 (Molecular Devices) and fitted using Sigmaplot 11.0 (SSPS). […]

[1] = 550 nm illumination from UV state

T1 sequence (Q01097 27-1482, other chains not shown): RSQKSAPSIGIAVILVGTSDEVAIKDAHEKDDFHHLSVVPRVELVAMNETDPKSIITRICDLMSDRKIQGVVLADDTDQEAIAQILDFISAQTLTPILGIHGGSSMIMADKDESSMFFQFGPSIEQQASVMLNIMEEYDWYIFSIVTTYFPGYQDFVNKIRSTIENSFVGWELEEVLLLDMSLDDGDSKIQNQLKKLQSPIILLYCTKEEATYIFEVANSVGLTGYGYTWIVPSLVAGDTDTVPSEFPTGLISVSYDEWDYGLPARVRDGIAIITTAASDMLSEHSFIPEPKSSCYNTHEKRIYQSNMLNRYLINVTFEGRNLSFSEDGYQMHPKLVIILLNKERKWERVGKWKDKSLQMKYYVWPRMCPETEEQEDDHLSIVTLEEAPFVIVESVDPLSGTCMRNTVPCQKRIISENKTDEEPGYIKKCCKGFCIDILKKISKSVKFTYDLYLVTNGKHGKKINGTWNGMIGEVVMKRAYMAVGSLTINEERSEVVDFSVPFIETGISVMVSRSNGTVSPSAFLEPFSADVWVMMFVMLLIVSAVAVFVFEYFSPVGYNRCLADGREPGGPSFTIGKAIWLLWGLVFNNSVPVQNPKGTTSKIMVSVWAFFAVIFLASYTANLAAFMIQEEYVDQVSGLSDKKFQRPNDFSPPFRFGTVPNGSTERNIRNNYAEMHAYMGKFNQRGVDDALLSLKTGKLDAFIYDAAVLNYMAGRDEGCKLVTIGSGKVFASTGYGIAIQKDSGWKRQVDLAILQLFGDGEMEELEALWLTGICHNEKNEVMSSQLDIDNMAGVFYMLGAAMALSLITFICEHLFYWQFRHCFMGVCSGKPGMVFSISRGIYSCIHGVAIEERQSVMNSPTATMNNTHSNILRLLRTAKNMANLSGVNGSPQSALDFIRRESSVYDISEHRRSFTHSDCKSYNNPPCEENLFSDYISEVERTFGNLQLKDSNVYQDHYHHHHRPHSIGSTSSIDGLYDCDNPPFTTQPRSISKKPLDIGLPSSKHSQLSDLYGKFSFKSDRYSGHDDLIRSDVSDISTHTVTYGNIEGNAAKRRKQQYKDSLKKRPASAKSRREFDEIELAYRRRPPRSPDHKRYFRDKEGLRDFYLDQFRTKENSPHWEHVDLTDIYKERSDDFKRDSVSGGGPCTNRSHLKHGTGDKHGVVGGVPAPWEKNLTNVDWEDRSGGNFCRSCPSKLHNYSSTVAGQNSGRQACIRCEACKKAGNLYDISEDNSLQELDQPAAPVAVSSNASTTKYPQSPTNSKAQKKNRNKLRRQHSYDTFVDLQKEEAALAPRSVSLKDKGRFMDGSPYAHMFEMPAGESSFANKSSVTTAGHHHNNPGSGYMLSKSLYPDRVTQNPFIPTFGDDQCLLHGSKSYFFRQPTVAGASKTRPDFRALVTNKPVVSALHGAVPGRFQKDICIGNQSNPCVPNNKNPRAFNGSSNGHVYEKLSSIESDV

inhibition of GluN1/GluN2B currents in HEK cells [1]: 58.559% | inhibition of GluN1/GluN2B currents in HEK cells (dark): 76.928% | inhibition of GluN1/GluN2B currents in HEK cells (under 365 nm illumination): 23.428% | inhibition at 2 µM [1]: 59% | inhibition at 2 µM (dark): 77% | inhibition at 2 µM (under 365 nm illumination): 23% | tau off of inhibition relief under UV illumination (HEK cells, 365 nm): 0.814 s | tau off of inhibition relief by washout in the dark (HEK cells, dark): 30.520 s | Relative current (IOpto/I0) ([OptoNAM-3] 0.050 µM, HEK cells, 365 nm illumination): 0.936 | Relative current (IOpto/I0) ([OptoNAM-3] 0.050 µM, HEK cells, dark PSS (trans)): 0.679 | Relative current (IOpto/I0) ([OptoNAM-3] 0.125 µM, HEK cells, 365 nm illumination): 0.926 | Relative current (IOpto/I0) ([OptoNAM-3] 0.125 µM, HEK cells, dark PSS (trans)): 0.513 | Relative current (IOpto/I0) ([OptoNAM-3] 0.300 µM, HEK cells, 365 nm illumination): 0.848 | Relative current (IOpto/I0) ([OptoNAM-3] 0.300 µM, HEK cells, dark PSS (trans)): 0.435 | Relative current (IOpto/I0) ([OptoNAM-3] 0.500 µM, HEK cells, dark PSS (trans)): 0.261 | Relative current (IOpto/I0) ([OptoNAM-3] 1.000 µM, HEK cells, 365 nm illumination): 0.722 | Relative current (IOpto/I0) ([OptoNAM-3] 1.000 µM, HEK cells, dark PSS (trans)): 0.205 | Relative current (IOpto/I0) ([OptoNAM-3] 1.500 µM, HEK cells, 365 nm illumination): 0.713 | Relative current (IOpto/I0) ([OptoNAM-3] 1.500 µM, HEK cells, dark PSS (trans)): 0.181 | Relative current (IOpto/I0) ([OptoNAM-3] 2.000 µM, HEK cells, 365 nm illumination): 0.705 | Relative current (IOpto/I0) ([OptoNAM-3] 2.000 µM, HEK cells, dark PSS (trans)): 0.166 | Relative current (IOpto/I0) ([OptoNAM-3] 2.500 µM, HEK cells, 365 nm illumination): 0.442 | Relative current (IOpto/I0) ([OptoNAM-3] 2.500 µM, HEK cells, dark PSS (trans)): 0.034 | IC50 (cell illuminated at 365 nm, read-out: IC50 on GluN1/GluN2B in HEK cells illuminated at 365 nm): 2950 nM and 3000 nM | IC50 (dark, read-out: IC50 on GluN1/GluN2B in HEK cells in the dark): 150 nM
SMILES: c1ccc(/N=N/c2ccc(CCNc3ccncc3)cc2)cc1 [OptoNAM-3, (E)-N-(4-(Phenyldiazenyl)phenethyl)pyridin-4-amine]
